In patent US20220378923A1, “BET DEGRADER” (KYOWA KIRIN CO., LTD., priority 2019, published 2022):

Experiments:
Type in all cases: cell-based
Conditions in all cases: SU-DHL-4 cells, test compound 100 nmol/L, 24 hours
[1] = target: T1, BRD3 (Homo sapiens, UniProt Q15059); assay: Evaluation of BET proteolysis in SU-DHL-4 cell line by Western blotting: BRD3 (Test Example 4)
T1 construct: Changes in the amount of BRD4, BRD2 and BRD3 proteins in the SU-DHL-4 cell line; endogenous in cells; host or cells: SU-DHL-4
Description: (§1) The human DLBCL cell line SU-DHL-4 was purchased from DSMZ. SU-DHL-4 was passaged using RPMI1640 medium containing 10 vol % FBS. The culture conditions were 37° C. and 5% CO2.
Anti-BRD3 antibody: Anti-BRD3 antibody (2088C3a) (Santa Cruz Biotechnology, Cat No. sc-81202)
(§2) Changes in the amount of BRD4, BRD2 and BRD3 proteins in the SU-DHL-4 cell line by the test compound (compound 1b, compound 1l or compound P3) were detected by WB. The compound P3 is a compound described as example 14 in the known Patent Document 2 (WO 2015/081284), which was synthesized according to the method described in Patent Document 2 and used in this test.
(§3) The cultured SU-DHL-4 cells were seeded at 6×10^5 cells/well in a transparent 6-well plate (Code No. 140675, Thermo Fisher Scientific). After seeding, the cells were pre-cultured at 37° C. in a carbon dioxide gas incubator for 18 to 25 hours. Next, a 0.1 mmol/L DMSO solution of the test compound was prepared, diluted so that the concentration was 200-fold of the final concentration in RPMI1640 medium containing the above FBS and PS, and 1/200 volume of the diluted solution was added to each well. At this time, the final concentration of DMSO was adjusted to be 0.1 vol %. After adding the test compound, the cells were cultured at 37° C. in a carbon dioxide gas incubator for 24 hours.
(§4) After collecting the cells, the supernatant was aspirated, and Lysis buffer 6 (R&D systems, Cat No. 895561) was added to the pellet at 0.1 mL/sample. After incubating on ice for 60 minutes, the supernatant was collected by centrifugation at 15000 rpm for 10 minutes at 4° C.
(§5) Using Pierce BCA Protein Assay Kit (Thermo Fisher, Cat No. 23225), the protein concentration of each sample was quantified according to the manual attached to the kit, and then was diluted and prepared with Lane Marker Reducing Sample Buffer (5×) (Thermo Fisher, Cat No. 39000) and Lysis buffer 6 to 1 mg/mL. The cells were incubated at 95° C. for 5 minutes to prepare WB samples. WB samples were stored at −30° C. until electrophoresis.
(§6) The WB sample was thawed and used after vortex mixing and spin down. […]

[2] = target: T2, BRD2 (Homo sapiens, UniProt P25440); assay: Evaluation of BET proteolysis in SU-DHL-4 cell line by Western blotting: BRD2 (Test Example 4)
T2 construct: Changes in the amount of BRD4, BRD2 and BRD3 proteins in the SU-DHL-4 cell line; endogenous in cells; host or cells: SU-DHL-4
Description: as §1
Anti-BRD2 antibody: Brd2 (D8964) Rabbit mAb (Cell Signaling Technology, Cat No. #5848S)
as §2, §3, §4, §5, §6

[3] = target: T3, BRD4 (Homo sapiens, UniProt O60885); assay: Evaluation of BET proteolysis in SU-DHL-4 cell line by Western blotting: BRD4 (Test Example 4)
T3 construct: Changes in the amount of BRD4, BRD2 and BRD3 proteins in the SU-DHL-4 cell line; endogenous in cells; host or cells: SU-DHL-4
Description: as §1
Anti-BRD4 antibody: BRD4 (E2A7X) Rabbit mAb (Cell Signaling Technology, Cat No. #13440S)
as §2, §3, §4, §5, §6

T2 sequence (P25440 whole entry): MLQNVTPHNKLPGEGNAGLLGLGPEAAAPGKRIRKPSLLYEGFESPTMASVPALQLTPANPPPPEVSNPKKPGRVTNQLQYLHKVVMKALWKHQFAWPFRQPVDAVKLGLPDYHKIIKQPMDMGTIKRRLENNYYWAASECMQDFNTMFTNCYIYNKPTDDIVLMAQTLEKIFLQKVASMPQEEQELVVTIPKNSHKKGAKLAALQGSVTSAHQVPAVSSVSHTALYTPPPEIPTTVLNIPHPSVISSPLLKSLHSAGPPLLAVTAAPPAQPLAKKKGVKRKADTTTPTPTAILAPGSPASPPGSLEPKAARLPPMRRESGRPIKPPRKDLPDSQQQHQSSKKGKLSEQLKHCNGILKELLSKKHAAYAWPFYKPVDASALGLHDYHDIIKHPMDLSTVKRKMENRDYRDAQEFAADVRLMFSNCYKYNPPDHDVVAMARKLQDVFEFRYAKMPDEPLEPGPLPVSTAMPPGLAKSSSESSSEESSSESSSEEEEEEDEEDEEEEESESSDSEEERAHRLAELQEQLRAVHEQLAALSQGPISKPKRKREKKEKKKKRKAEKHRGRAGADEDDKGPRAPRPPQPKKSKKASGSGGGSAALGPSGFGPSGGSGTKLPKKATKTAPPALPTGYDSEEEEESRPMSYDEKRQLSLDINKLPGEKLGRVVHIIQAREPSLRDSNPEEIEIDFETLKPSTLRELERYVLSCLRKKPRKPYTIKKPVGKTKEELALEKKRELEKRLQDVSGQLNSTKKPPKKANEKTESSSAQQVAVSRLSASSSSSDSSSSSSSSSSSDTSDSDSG
T1 sequence (Q15059 whole entry): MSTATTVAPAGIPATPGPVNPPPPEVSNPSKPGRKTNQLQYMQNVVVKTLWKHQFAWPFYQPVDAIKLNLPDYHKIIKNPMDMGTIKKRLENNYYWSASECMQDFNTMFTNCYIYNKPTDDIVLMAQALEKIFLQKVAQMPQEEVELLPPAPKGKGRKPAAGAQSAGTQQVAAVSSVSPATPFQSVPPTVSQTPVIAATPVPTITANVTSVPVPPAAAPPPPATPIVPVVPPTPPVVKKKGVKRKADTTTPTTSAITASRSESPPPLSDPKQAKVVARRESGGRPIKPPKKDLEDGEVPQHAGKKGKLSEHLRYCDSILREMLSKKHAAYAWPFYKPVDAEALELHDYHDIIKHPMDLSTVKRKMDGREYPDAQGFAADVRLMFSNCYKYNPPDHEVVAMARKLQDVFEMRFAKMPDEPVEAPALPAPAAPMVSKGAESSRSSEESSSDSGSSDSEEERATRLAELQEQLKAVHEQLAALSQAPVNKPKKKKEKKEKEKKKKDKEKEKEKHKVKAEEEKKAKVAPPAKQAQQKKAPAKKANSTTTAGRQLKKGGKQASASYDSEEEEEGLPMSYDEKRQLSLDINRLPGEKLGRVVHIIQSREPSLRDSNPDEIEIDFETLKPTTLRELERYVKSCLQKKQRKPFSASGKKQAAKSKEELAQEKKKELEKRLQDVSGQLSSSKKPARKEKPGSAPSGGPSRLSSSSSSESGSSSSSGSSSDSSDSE

| SMILES | change in amount of BRD3 protein (band in Western blotting, FIG. 1) [1] | change in amount of BRD2 protein (band in Western blotting, FIG. 1) [2] | change in amount of BRD4 protein (band in Western blotting, FIG. 1) [3] |
| --- | --- | --- | --- |
| Cc1sc2c(c1C)C(c1ccc(C(=O)NCCCNC(=O)c3ccc(C4=N[C@@H](CC(=O)OC(C)(C)C)c5nnc(C)n5-c5sc(C)c(C)c54)cc3)cc1)=N[C@@H](CC(=O)OC(C)(C)C)c1nnc(C)n1-2 [Compound 1b, Di-tert-butyl 2,2′-[(6S,6′S)-({[propane-1,3-diylbis(azanediyl)]bis(carbonyl)}bis(4,1-phenylene))bis(2,3,9-trimethyl-6H-thieno[3,2-f][1,2,4]triazolo[4,3-a][1,4]diazepine-4,6-diyl)]diacetate] | the band became faint compared with that of control | the band became faint compared with that of control | the band became faint compared with that of control |
| CCC(=O)N1c2ccccc2[C@H](Nc2ccc(C(=O)NCC(=O)CNC(=O)c3ccc(N[C@@H]4C[C@H](C)N(C(=O)CC)c5ccccc54)cc3)cc2)C[C@@H]1C [Compound 1l, N,N′-(2-Oxopropane-1,3-diyl)bis(4-{[(2S,4R)-2-methyl-1-propionyl-1,2,3,4-tetrahydroquinolin-4-yl]amino}benzamide)] | the band became faint compared with that of control | the band became faint compared with that of control | the band became faint compared with that of control |
